Experiments:
Clz9 = experiment: In vitro assays with Clz9 wild type and variants; format: biochemical, Streptomyces sp. CNH-287; conditions: 12 hours, 37° C., pH 7.5
Description: (§1) The in vitro assays were performed following a modified procedure that was previously reported.^1 Assays (0.1 mL) contained 100 mM potassium phosphate buffer pH 7.5, 0.1 mg/mL^−1 catalase, 10 μL DMSO, 1 μL of a 20 mM stock solution of substrate and were initiated by addition of 20 μM wild type Clz9 or Tcz9 or their respective variants, unless otherwise altered to investigate the thermal and solvent effects on enzyme activity or product stability during time course experiments. Assays were allowed to incubate for 12 hat 37° C. before quenching with 150 μL acetonitrile. Assays were then centrifuged at 14000×g for 30 minutes and passed through a […] filter before injecting 50 μL of the solution for LC-MS analysis at a flow rate of 0.75 mL/min with a mobile phase combination of water+0.1% formic acid (A) and acetonitrile+0.1% formic acid (B) using a gradient as follows: 50% (B), 0 to 2 minutes; 50 to 100% (B), 2 to 10 min; 100% (B), 10 to 17 min; 100% to 50% (B), 17 to 18 min; 50% (B), 18 to 20 minutes.

Tcz9 = experiment: In vitro assays with Tcz9 wild type and variants; format: biochemical, Actinomycete sp. AJS-327; conditions: 12 hours, 37° C., pH 7.5
Description: as §1

[1] = room temperature
Tcz9 T405Y = format: cell-based, Actinomycete sp. AJS-327; conditions: I mM substrate, IL culture, 48 hours
[2] = tested on: daurichromenic acid (DCA) synthase; conditions: cited from earlier work

| SMILES | activity with the Clz9 enzymes (wild type and three variants) (Clz9) | activity with Tcz9 T124F (Tcz9) | activity with the Tcz9 enzymes (wild type and three variants) (Tcz9) | stability in aqueous solutions [1] | also measured |
| --- | --- | --- | --- | --- | --- |
| CC(C)=CCC/C(C)=C/CC/C(C)=C/Cc1c(O)cc(C)c(C(=O)O)c1O [compound 19, grifolic acid] | no activity | completely abolished activity | three of the four Tcz9 enzymes fully consumed | – | – |
| O=C1C=C2C(=C(O)/C1=c1/ccc3cc(Cl)c(Cl)n13)C(=O)n1c2cc(Cl)c1Cl [compound 7] | – | – | – | unexpectedly stable | – |
| CC(C)=CCC/C(C)=C/Cc1c(O)cc(C)c(C(=O)O)c1O [compound 12c, cannabigerorcinic acid] | slightly different activity profile than 12b and 12a | – | slightly different activity profile than 12b and 12a | – | – |
| O=C1C=C2C(=C(O)/C1=c1\ccc3cc(Cl)c(Cl)n13)C(=O)n1c2cc(Cl)c1Cl [compound 6] | – | – | – | unexpectedly stable | – |
| CCCCCc1cc(O)c(C/C=C(\C)CCC=C(C)C)c(O)c1C(=O)O [compound 12a, cannabigerolic acid] | – | abolished activity | – | – | activity with wild type Clz9 (Clz9; 5 mol %): showed activity; activity with Clz9 F156T (Clz9): nearly consumed all; activity with Clz9 T438Y (Clz9): increased conversion; activity with wild type Tcz9 (Tcz9; 5 mol %): showed activity; activity with Tcz9 E368N (Tcz9): consumed all; activity with Tcz9 T405Y (Tcz9): increased conversion; conversion of substrate to products 15a and 17a (Tcz9 T405Y): approximately 80%; activity with DCA synthase [2]: no activity |

From patent publication US20250027127A1, “C[…] BACTERIA” (priority 2021, published 2025)
